The source of these data is ChEMBL document CHEMBL4414676, “Quinazoline-Containing Indole Alkaloids from the Marine-Derived Fungus Aspergillus sp. HNMF114” (J Nat Prod, 2019).

Experiment [1] deals with SGC-7901. The experiment can be described thus: Antiproliferative activity against human SGC7901 cells after 24 to 72 hrs by MTT assay. The class given is functional, cell-based. On the technique in general: Tetrazolium dyes change colour on reduction, which living cells bring about.
Experiment [2] relates to HeLa. In words: Antiproliferative activity against human HeLa cells after 24 to 72 hrs by MTT assay. The class given is functional, cell-based.
For experiment [3], the system named is A549. The experiment can be described thus: Antiproliferative activity against human A549 cells after 24 to 72 hrs by MTT assay. The class given is functional, cell-based.
The test system of experiment [4] is Staphylococcus aureus. The experiment can be described thus: Antibacterial activity against Staphylococcus aureus after 24 hrs by two fold dilution assay. Type of experiment: functional, organism-based.
Experiment [5] has as its system Escherichia coli. The experiment can be described thus: Antibacterial activity against Escherichia coli after 24 hrs by two fold dilution assay. Type of experiment: functional, organism-based.
The test system of experiment [6] is Bacillus subtilis. The experiment can be described thus: Antibacterial activity against Bacillus subtilis after 24 hrs by two fold dilution assay. The class given is functional, organism-based.
The subject of experiment [7] is Streptococcus agalactiae. In words: Antibacterial activity against Streptococcus agalactiae after 24 hrs by two fold dilution assay. The class given is functional, organism-based.
For experiment [8], the system named is K562. The experiment can be described thus: Antiproliferative activity against human K562 cells after 24 to 72 hrs by MTT assay. Type of experiment: functional, cell-based.
A short description of experiment [9]: Inhibition of quorum sensing in C6-HSL-induced Chromobacterium violaceum CV026 assessed as […] by measuring minimum inhibitory dose per well after 18 hrs by well diffusion method.

The source made the active and inactive calls. The calls are words filed in the database; no cut-off is given here.

As for `O=C1N[C@@H]2c3nc4ccccc4c(=O)n3[C@@H]1C[C@@]21C(=O)Nc2ccccc21`, the result in experiment [1], in experiment [2], in experiment [3], in experiment [4], in experiment [5] and in [6] was inactive. Also, the outcome in experiment [7] and in experiment [8] was inactive.
With `CCC(=O)O[C@H](c1nc2ccccc2c(=O)n1[C@@H]1C[C@]2(OC1=O)c1ccccc1N1C(=O)C(C)(C)N(O)[C@H]12)C(C)C`, the outcome in [1], in [2], in [3], in [4], in [5] and in experiment [6] was inactive. The outcome in experiment [7] and in [8] was inactive.
As for `CC(C)=C1NC(=O)[C@@H](C[C@@]2(O)C(=O)Nc3ccccc32)n2c1nc1ccccc1c2=O`, the result in experiment [1], in [2], in experiment [3], in [4], in experiment [5] and in [6] was inactive. Further, the result in [7] and in experiment [8] was inactive. For the same compound, the MIC in experiment [9] was found to be 16 µg.
Turning to `O=C1N[C@H]2c3nc4ccccc4c(=O)n3[C@@H]1C[C@@]21c2ccccc2N2C(=O)[C@@H]3CCCN3[C@H]21`, the outcome in experiment [1], in experiment [2], in experiment [3], in [4], in experiment [5] and in [6] was inactive. Besides, the outcome in [7] and in [8] was inactive.
Consider `CC(C)[C@H](O)c1nc2ccccc2c(=O)n1[C@H]1C[C@]2(OC1=O)c1ccccc1N1C(=O)C(C)(C)N(O)[C@H]12`, for which the outcome in [1], in experiment [2], in experiment [3], in experiment [4], in [5] and in experiment [6] was inactive. For the same compound, the result in [7] and in experiment [8] was inactive.
On to `CC(=O)O[C@H](c1nc2ccccc2c(=O)n1[C@@H]1C[C@]2(OC1=O)c1ccccc1N1C(=O)C(C)(C)N[C@H]12)C(C)C`, for which the outcome in experiment [1], in [2], in experiment [3], in experiment [4], in [5] and in [6] was inactive. For the same compound, the outcome in [7] and in experiment [8] was inactive.
In the case of `CC(C)[C@@]1(O)NC(=O)[C@@H](C[C@]2(O)c3ccccc3N3C(=O)C(C)(C)N(O)[C@H]32)n2c1nc1ccccc1c2=O`, the outcome in experiment [1], in [2], in [3], in experiment [4], in [5] and in experiment [6] was inactive. The outcome in [7] and in experiment [8] was inactive.
As for `CC1(C)C(=O)N2c3ccccc3[C@@]3(C[C@H]4n5c(nc6ccccc6c5=O)C(=O)C(C)(C)[C@@]4(O)O3)[C@@H]2N1O`, the outcome in [1], in [2], in [3], in experiment [4], in experiment [5] and in [6] was inactive. In addition, the result in [7] and in experiment [8] was inactive.
Consider `CC(=O)OC(c1nc2ccccc2c(=O)n1[C@@H]1C[C@]2(OC1=O)C(=O)Nc1ccccc12)C(C)C` (some centres not stated), for which the outcome in experiment [1], in experiment [2], in experiment [3], in [4], in experiment [5] and in [6] was inactive. Moreover, the outcome in [7] and in experiment [8] was inactive. Further, the MIC in experiment [9] stood at 32 µg.
On to `CC(=O)OC(c1nc2ccccc2c(=O)n1[C@H]1C[C@@]2(OC1=O)C(=O)Nc1ccccc12)C(C)C` (some centres not stated), for which the outcome in experiment [1], in [2], in [3], in [4], in [5] and in [6] was inactive. For the same compound, the result in experiment [7] and in [8] was inactive. Further, the MIC in [9] came out at 32 µg.
Turning to `CC(C)[C@H](O)c1nc2ccccc2c(=O)n1[C@H]1C[C@]2(OC1=O)c1ccccc1N1C(=O)C(C)(C)N(S(C)(=O)=O)[C@H]12`, the outcome in experiment [1], in experiment [2], in experiment [3], in [4], in [5] and in experiment [6] was inactive. For the same compound, the outcome in [7] and in experiment [8] was inactive.
As for `CC(C)[C@@H]1NC(=O)[C@@H](C[C@]2(O)c3ccccc3N3C(=O)C(C)(C)N[C@H]32)n2c1nc1ccccc1c2=O`, the outcome in experiment [1], in experiment [2], in [3], in [4], in experiment [5] and in experiment [6] was inactive. Besides, the outcome in experiment [7] and in [8] was inactive.
For `CC(=O)O[C@H](c1nc2ccccc2c(=O)n1[C@@H]1C[C@]2(OC1=O)c1ccccc1N1C(=O)C(C)(C)N(O)[C@H]12)C(C)C`, the result in experiment [1], in [2], in experiment [3], in [4], in experiment [5] and in [6] was inactive. Moreover, the result in experiment [7] and in experiment [8] was inactive.
Turning to `O=C1C=C(Br)/C(=C/Br)O1`, the MIC in [9] was 1 µg.
Consider `CC1(C)C(=O)N2c3ccccc3[C@@]3(C[C@H](n4cnc5ccccc5c4=O)C(=O)O3)[C@@H]2N1O`, for which the outcome in [1], in experiment [2], in [3], in [4], in experiment [5] and in [6] was inactive. Further, the result in experiment [7] and in [8] was inactive.
Regarding `CC(=O)O[C@@H](c1nc2ccccc2c(=O)n1[C@H]1C[C@]2(OC1=O)c1ccccc1N1C(=O)C(C)(C)N[C@H]12)C(C)C`, the outcome in [1], in experiment [2], in experiment [3], in experiment [4], in [5] and in experiment [6] was inactive. For the same compound, the outcome in experiment [7] and in [8] was inactive.
For the compound `CC(C)[C@@H](O)c1nc2ccccc2c(=O)n1[C@H]1C[C@]2(OC1=O)c1ccccc1N1C(=O)C(C)(C)N(O)[C@H]12`, the outcome in experiment [1], in [2], in experiment [3], in [4], in [5] and in [6] was inactive. The result in [7] and in experiment [8] was inactive.
